In paper PMC10096180, “Half-Sandwich Type Platinum-Group Metal Complexes of C-Glucosaminyl Azines: Synthesis and Antineoplastic and Antimicrobial Activities” (Molecules, 2023):
Where two headings read alike, the source gives them in different places.

Key:
[1] = test system: A2780 cells; assay: MTT reduction assay, early toxicity, 4 h treatment; assay type: cell-based
Outline: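 Cells plated the day before, exposed to compounds for 4 h, then MTT 0.5 mg/mL for 40–60 min at 37 °C; reduced dye dissolved in DMSO, read at 540 nm relative to vehicle wells. IC50 by four-parameter fit; otherwise % inhibition at 100 μM.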

[2] = test system: methicillin-resistant Staphylococcus aureus (MRSA) clinical isolates; assay: Broth microdilution MIC, clinical MRSA isolates; assay type: cell-based; settings: 24 h, 0.08–40 μM
Outline: (§1)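 S. aureus and E. faecium clinical isolates (Debrecen, 2018–2020; MALDI-TOF-identified) tested by EUCAST broth microdilution in Mueller–Hinton broth at 5.0 × 10^5 CFU/mL across 0.08–40 μM (twofold). After 24 h at 37 °C, visually read; MIC is the lowest concentration giving ≥50% inhibition versus growth control. At least two runs in duplicate.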

[3] = Distribution coefficient (logD), n-octanol-PBS; assay type: physicochemical; settings: n-octanol-PBS (pH = 7.4) system
Experimental: The logD values of the newly synthesized complexes were determined according to a procedure described in our previous publications. page 64: Ir-7b +1.17 Rh-7b +1.41 Ru-7c +1.31 Os-7c +1.59 Ir-7c +1.40 Rh-7c +1.13 Ru-7d +1.26 Os-7d +1.42 Ir-7d +1.30 Rh-7d +1.04 Ru-7e +2.22 Os-7e +2.21 Ir-7e +1.39 Rh-7e +1.66 *logD was determined in an n-octanol-PBS (pH = 7.4) system 64 (14 pictures or pasted objects on this page, not shown here)

[4] = test system: Enterococcus faecalis (ATCC29212); assay: Broth microdilution MIC, reference strain; assay type: cell-based; settings: 24 h, tested range 0.08–40 μM, read-out: MIC E. faecalis ATCC 29,212
Outline: (§2)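 EUCAST broth microdilution in Mueller–Hinton broth, inoculum 5.0 × 10^5 CFU/mL, compounds at 0.08–40 μM (twofold dilutions), 24 h at 37 °C. Plates read visually; MIC taken as lowest concentration giving ≥50% inhibition versus drug-free growth control.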

[5] = test system: Staphylococcus aureus (ATCC29213); assay: Broth microdilution MIC, reference strain; assay type: cell-based; settings: 24 h, 0.08–40 μM, read-out: MIC S. aureus ATCC 29213
Outline: as §2

[6] = test system: vancomycin-resistant Enterococcus (VRE) clinical isolates; assay: Broth microdilution MIC, clinical VRE isolates; assay type: cell-based, E. faecium; settings: 24 h, 0.08–40 μM
Outline: as §1

[7] = target: primary human dermal fibroblasts; assay: SRB binding assay, cytostasis, 48 h treatment; assay type: cell-based; settings: read-out: Fibroblast SRB IC50
Outline: (§3)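 Ovarian cancer A2780 cells and primary human dermal fibroblasts treated 48 h, TCA-fixed, SRB-stained, absorbance at 540 nm relative to vehicle. IC50 from four-parameter fit when a plateau was reached or inhibition exceeded 90%; otherwise percent inhibition at 100 μM.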

[8] = test system: A2780 cells; assay: SRB binding assay, cytostasis, 48 h treatment; assay type: cell-based
Outline: as §3

- MIC ([2]; clinical isolate 20,426 MRSA, read-out: MIC 20,426 MRSA): 5 µM
- MIC ([2]; clinical isolate 24,035 MRSA, read-out: MIC 24,035 MRSA): 5 µM
- MIC ([2]; clinical isolate 24,268 MRSA, read-out: MIC 24,268 MRSA): 5 µM
- MIC ([2]; clinical isolate 24,272 MRSA, read-out: MIC 24,272 MRSA): 5 µM
- MIC ([2]; clinical isolate 24,328 MRSA, read-out: MIC 24,328 MRSA): 5 µM
- MIC ([2]; clinical isolate 24,408 MRSA, read-out: MIC 24,408 MRSA): 5 µM
- logD [3]: 2.72
- MIC [4]: 10 µM
- MIC [5]: 5 µM
- MIC ([6]; clinical isolate 25,051 VRE, read-out: MIC 25,051 VRE): 5 µM
- MIC ([6]; clinical isolate 25,498 VRE, read-out: MIC 25,498 VRE): 5 µM
- MIC ([6]; clinical isolate 27,085 VRE, read-out: MIC 27,085 VRE): 5 µM
- IC50 [7]: 9.62 µM
- IC50 [8]: 1860 nM
Structure (SMILES): Cc1ccc(C(C)C)cc1.F[P-](F)(F)(F)(F)F.N[C@@H]1[C@@H](OCc2ccccc2)[C@H](OCc2ccccc2)[C@@H](COCc2ccccc2)O[C@H]1c1ccccn1.[Cl][Ru+] [Ru-3a]
- IC50 [1]: 8.02 µM
- A2780 MTT Max Inhibition ([1]; inhibition at maximum concentration (100 μM) where no plateau, ND = not detectable): >90%
- A2780 SRB Max Inhibition ([8]; up to 100 μM, ND = not detectable): >90%
